Assay results from PubChem BioAssay (NCI).
Values joined by “and” are separate entries in the source; they are usually repeats but may differ in a detail not shown here. Identical values can stand only once.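 48-hour exposure; five concentrations; linearly interpolated endpoints. The concentration for 50% growth inhibition is given as GI50. TGI marks complete inhibition of growth.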

Columns and labels:
Assay in all cases: growth of human tumour cells (NCI), 48 h
[1] = system: SW-620 colon
[2] = system: NCI-H23 lung
[3] = system: SK-MEL-5 melanoma
[4] = system: NCI-H460 lung
[5] = system: LOX IMVI melanoma
[6] = system: MDA-MB-231 breast
[7] = system: IGROV1 ovarian
[8] = system: HL-60(TB) leukemia
[9] = system: PC-3 prostate
[10] = system: RPMI-8226 leukemia

SMILES	TGI [1]	TGI [2]	TGI [3]	TGI [4]	TGI [5]	TGI [6]	TGI [7]	GI50 [8]	TGI [9]	GI50 [10]	TGI [10]	GI50 [1]	GI50 [2]	GI50 [3]	GI50 [4]	GI50 [5]	GI50 [6]	GI50 [7]	TGI [8]	GI50 [9]
C=C(C)C(=O)OC1CC2=CC(CC3(C)OC3C3OC(=O)C(=C)C13)OC2=O (stereo not drawn)	5.03 µM	30.9 µM	31 µM	35.1 µM	8.99 µM	37.1 µM	38.8 µM	0.749 µM	28.1 µM	0.865 µM	2.75 µM									
COc1ccc2c(c1)c(-c1nc(-c3c[nH]c4ncccc34)cs1)cn2CCCCN1CCOCC1	3.92 µM	5.08 µM	3.16 µM	3.9 µM	3.19 µM	3.5 µM	8.28 µM	1.94 µM	4.26 µM	1.99 µM	4.72 µM	1.99 µM	2.14 µM	1.75 µM	1.99 µM	1.71 µM	1.7 µM	2.48 µM	3.85 µM	1.75 µM
O=C1/C(=C/c2ccccc2F)CNC/C1=C\c1ccccc1F	3.49 µM and 0.647 µM	1.81 µM and 3.27 µM	2.85 µM and 3.05 µM	3.29 µM and 3.3 µM	1.22 µM and 0.461 µM	3.17 µM and 2.36 µM	2.49 µM and 3.19 µM	0.371 µM and 2.04 µM	1.07 µM and 3.2 µM	0.191 µM and 0.22 µM	0.697 µM and 0.563 µM	0.236 µM and 0.245 µM	0.693 µM and 0.838 µM	1.22 µM and 1.59 µM	0.693 µM and 0.458 µM	0.318 µM and 0.186 µM	1.18 µM and 0.653 µM	0.809 µM and 1.2 µM	1.96 µM and 6.92 µM	0.295 µM and 0.551 µM
Nc1ncnc2c1ncn2CC(O)C(=O)O (stereo not drawn)	> 100 µM	> 100 µM	> 100 µM	> 100 µM	> 100 µM	> 100 µM	> 100 µM		> 100 µM		> 100 µM								> 100 µM	
C=CCNCCCN1C(=O)c2ccc3c4c(ccc(c24)C1=O)C(=O)N(CCCNCC=C)C3=O	1.51 µM	1.42 µM	0.395 µM	0.448 µM	0.97 µM	5.91 µM	1.2 µM	0.383 µM	11 µM	0.385 µM	3.55 µM	0.265 µM	0.392 µM	0.182 µM	0.195 µM	0.316 µM	0.681 µM	0.325 µM	1.41 µM	0.589 µM
COc1ccc(-c2nnc(SCC(=O)Nc3ccc(/C(C)=N\O)cc3)n2-c2ccccc2)cc1OC	> 100 µM	> 100 µM	> 100 µM	> 100 µM	> 100 µM	23.8 µM	29.4 µM	> 100 µM	> 100 µM	> 100 µM	> 100 µM	> 100 µM	12.9 µM	> 100 µM	> 100 µM	> 100 µM	4.26 µM	3.74 µM	> 100 µM	> 100 µM
Cc1nn(-c2ccccc2)c2c1CC(=O)Nc1ccccc1-2	> 100 µM	> 100 µM	45.2 µM	> 100 µM	> 100 µM	> 100 µM	> 100 µM	0.0203 µM		0.0826 µM	0.456 µM	0.152 µM	0.357 µM	0.0879 µM	0.381 µM	0.431 µM	0.578 µM	0.397 µM		0.279 µM
CN(c1ccc(NC(=O)Nc2ccc(OC(F)(F)F)cc2)cc1)c1ccnc(Nc2cccc(S(N)(=O)=O)c2)n1	6.62 µM	6.25 µM	7.56 µM	4.51 µM	3.97 µM	15.1 µM	7.45 µM	2.7 µM	5.72 µM	2.7 µM	10.1 µM	2.93 µM	2.15 µM	3.96 µM	0.428 µM	0.725 µM	4.92 µM	1.73 µM	6.36 µM	1.45 µM
O=Cc1cn(Cc2cccc(Cl)c2)c2ccccc12	23.1 µM	26.9 µM	17.4 µM	15.5 µM	21 µM	21.5 µM	14.7 µM	7.5 µM	22.4 µM	4.76 µM	25.2 µM	7.37 µM	9.33 µM	4.1 µM	< 0.0112 µM	7.4 µM	7.72 µM	0.263 µM	29.9 µM	5.76 µM
CN1CCN(c2nc(NCCCCNc3ccnc4cc(Cl)ccc34)c3ccccc3n2)CC1	18.2 µM	29.7 µM	3.19 µM	18.3 µM	4.19 µM	5.93 µM	19 µM	1.87 µM	17.6 µM	1.8 µM	5.43 µM	4.42 µM	11.7 µM	1.78 µM	5.14 µM	1.89 µM	2.14 µM	3.49 µM	4.23 µM	4.44 µM
O=C1C=C[C@@]23C[C@@H](Nc4c(O)c5c6c(c42)=NCCC=6C=N5)SC3=C1	3.31 µM	7.01 µM	3.38 µM	19.8 µM	3.78 µM	3.35 µM	4.35 µM		7.61 µM	3.13 µM	> 34.6 µM	1.68 µM	2.52 µM	1.93 µM	7.2 µM	1.82 µM	1.62 µM	2.01 µM	5.61 µM	2.42 µM
Cn1ccnc1C(=O)/C=C/c1ccc(CC(=O)Nc2ccc(S(F)(F)(F)(F)F)cc2)cc1	4.09 µM	4.82 µM	5.48 µM	7.58 µM	3.34 µM	6.66 µM	7.29 µM	0.62 µM	2.03 µM	0.517 µM	2.03 µM	1.03 µM	2.37 µM	3.02 µM	2.25 µM	1.19 µM	2.91 µM	2.62 µM	4.47 µM	0.534 µM
Cn1c(=O)c(Oc2ccc(F)cc2F)cc2cnc(NC(CO)CO)nc21	> 25 µM	> 25 µM	> 25 µM	> 25 µM	> 25 µM	> 25 µM	> 25 µM	> 25 µM	> 25 µM	> 25 µM	> 25 µM	> 25 µM	> 25 µM	> 25 µM	> 25 µM	> 25 µM	> 25 µM	> 25 µM	> 25 µM	> 25 µM
CN(CC(=O)O)c1ccc(/C=C/c2ccnc3ccccc23)cc1	> 100 µM	> 100 µM	31.7 µM	67.1 µM	45.7 µM	> 100 µM	39.4 µM		> 100 µM		57.5 µM								48.2 µM	
C/C(=C\c1ccn(-c2ccc(N)c(F)c2)n1)[C@@H]1C[C@@H]2O[C@]2(C)CCC[C@H](C)[C@H](O)[C@@H](C)C(=O)C(C)(C)[C@@H](O)CC(=O)O1	> 50 µM	> 50 µM	6.54 µM	> 50 µM	> 50 µM	> 50 µM	> 50 µM	0.00873 µM	> 50 µM	0.00955 µM	> 25.4 µM	0.0103 µM	0.0138 µM	0.00882 µM	0.00938 µM	0.0121 µM	0.0695 µM	0.0599 µM	0.323 µM	0.0139 µM
